In PubChem BioAssay (NCI):
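96-well plates; 48 h exposure; 5 concentrations. Endpoints by linear interpolation between flanking doses. Not reached: highest tested concentration assigned. GI50 marks 50% less growth. TGI is the concentration that stops growth completely.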

How the values were obtained:
Experiment in all cases: NCI tumour cell line growth inhibition, 48 h
NCI-H460 lung = test system: NCI-H460 lung
NCI-H522 lung = test system: NCI-H522 lung
NCI/ADR-RES ovarian = test system: NCI/ADR-RES ovarian
OVCAR-3 ovarian = test system: OVCAR-3 ovarian
OVCAR-4 ovarian = test system: OVCAR-4 ovarian
OVCAR-5 ovarian = test system: OVCAR-5 ovarian
OVCAR-8 ovarian = test system: OVCAR-8 ovarian
PC-3 prostate = test system: PC-3 prostate
RPMI-8226 leukemia = test system: RPMI-8226 leukemia
RXF 393 renal = test system: RXF 393 renal
SF-268 CNS = test system: SF-268 CNS
SF-295 CNS = test system: SF-295 CNS
SF-539 CNS = test system: SF-539 CNS
SK-MEL-2 melanoma = test system: SK-MEL-2 melanoma
SK-MEL-28 melanoma = test system: SK-MEL-28 melanoma
SK-MEL-5 melanoma = test system: SK-MEL-5 melanoma
SK-OV-3 ovarian = test system: SK-OV-3 ovarian
SN12C renal = test system: SN12C renal
SNB-19 CNS = test system: SNB-19 CNS
SR leukemia = test system: SR leukemia
SW-620 colon = test system: SW-620 colon
T-47D breast = test system: T-47D breast
TK-10 renal = test system: TK-10 renal
U251 CNS = test system: U251 CNS
UACC-62 melanoma = test system: UACC-62 melanoma
UO-31 renal = test system: UO-31 renal

`c1c2c(cc3c1OCO3)-c1ncc3cc4c(cc3c1C2)OCO4` gave a TGI (NCI-H460 lung) greater than 47.1 µM, a TGI (NCI-H522 lung) of 72.2 µM and a GI50 (NCI/ADR-RES ovarian) of 0.0508 µM. It also gave a TGI (NCI/ADR-RES ovarian) of 52.4 µM, a GI50 (OVCAR-3 ovarian) of 0.18 µM and a TGI (OVCAR-3 ovarian) of 0.356 µM. It also gave a GI50 (OVCAR-4 ovarian) of 28.6 µM, a TGI (OVCAR-4 ovarian) greater than 100 µM and a GI50 (OVCAR-5 ovarian) of 44.7 µM. It also gave a TGI (OVCAR-5 ovarian) greater than 100 µM, a GI50 (OVCAR-8 ovarian) of 0.111 µM and a TGI (OVCAR-8 ovarian) of 10.7 µM. The GI50 (PC-3 prostate) was 0.581 µM, the TGI (PC-3 prostate) was greater than 100 µM and the GI50 (RPMI-8226 leukemia) was 0.108 µM. The TGI (RPMI-8226 leukemia) was greater than 76.9 µM, the GI50 (RXF 393 renal) was 0.797 µM and the TGI (RXF 393 renal) was 43.5 µM. The GI50 (SF-268 CNS) was 0.112 µM, the TGI (SF-268 CNS) was 7.79 µM and the TGI (SF-295 CNS) was greater than 34 µM. For the same compound, the GI50 (SF-539 CNS) was 0.598 µM, the TGI (SF-539 CNS) was 5.25 µM and the GI50 (SK-MEL-2 melanoma) was greater than 8.58 µM. For the same compound, the TGI (SK-MEL-2 melanoma) was greater than 87.1 µM, the GI50 (SK-MEL-28 melanoma) was less than 0.01 µM and the TGI (SK-MEL-28 melanoma) was 41.8 µM. The GI50 (SK-MEL-5 melanoma) was 0.216 µM, the TGI (SK-MEL-5 melanoma) was 0.479 µM and the GI50 (SK-OV-3 ovarian) was less than 0.01 µM. The TGI (SK-OV-3 ovarian) was 26.8 µM, the GI50 (SN12C renal) was 0.0414 µM and the TGI (SN12C renal) was greater than 100 µM. It also gave a TGI (SNB-19 CNS) of 43.6 µM, a GI50 (SR leukemia) of less than 0.01 µM and a GI50 (SW-620 colon) of 0.136 µM. It also gave a TGI (SW-620 colon) greater than 100 µM, a GI50 (T-47D breast) greater than 100 µM and a TGI (T-47D breast) greater than 100 µM. For the same compound, the GI50 (TK-10 renal) was 0.143 µM, the TGI (TK-10 renal) was 3.87 µM and the GI50 (U251 CNS) was less than 0.0369 µM. The TGI (U251 CNS) was 26.9 µM, the GI50 (UACC-62 melanoma) was less than 0.0267 µM and the TGI (UACC-62 melanoma) was 9.16 µM. The GI50 (UO-31 renal) was 2.49 µM and the TGI (UO-31 renal) was greater than 100 µM.
